The values that follow come from patent publication US4379779A, “Equilin hapten and assay method” (American Home Products Corporation, priority 1980, dated 1983).

For series [1], the system named is Equilin Antibody (anti-equilin serum). Nature of the series: Cross-reactivity of steroids with anti-equilin serum (radioimmunoassay). The settings on record: for Equilin Antibody (Percent Cross-Reactivity): Table 1, anti-equilin serum, [2,4-3H]-equilin tracer. Type of series: binding, rabbit. On the procedure:
A standard was prepared from a stock solution of unlabeled equilin in absolute ethanol (100 ng/ml). A working standard solution containing 1 ng/ml of equilin was prepared in sodium phosphate buffer (0.1 M, pH 7, 0.9% NaCl). The labeled [2,4-^3 H]-equilin solution was prepared in the assay buffer at a concentration of 100 pg/ml. The antiserum was prepared in BSA-assay buffer (1 g BSA/1000 ml sodium phosphate buffer) at a concentration of one-fifth of the final working dilutions.
The standard curve was established by preparing duplicate 3 ml centrifuge tubes containing 0, 50, 100, 250, 500, 1000, and 2000 pg of equilin in a total volume of 0.5 ml assay buffer. The sample tubes were prepared in duplicate with hydrolyzed plasma extract (0.1 ml) and assay buffer (0.4 ml) in a total volume of 0.5 ml. To all standard and sample tubes antibody (0.25 ml) and labeled steroid (0.5 ml) were added. These were mixed and allowed to incubate at 4° C. for 18 hr. After addition of 0.2 ml gamma globulin dextrancoated charcoal (4 g charcoal, 0.4 g dextran, 0.8 g human gamma globulin, 200 ml deionized water), each tube was again mixed and placed in a cold room (4° C.) for 20 min. After centrifugation at 2,500 rev./min for 6 min, 0.5 ml of each supernatant was aliquoted into a counting vial. Then 15 ml of a scintillation medium (4 g of 2,5-diphenyloxazole (PPO), 50 mg of 1,4-di-2-(5-phenyloxazoyl)-benzene(dimethyl-POPOP), 100 ml of an aqueous solubilizer Biosolv BBS-3 (Biosolv is a trademark of Bechman Istruments, Irvine, Calif., U.S.A.) and 1000 ml toluene) was added to each vial. The samples were counted to a relative standard error of less than 2% in a Packard model 3320 liquid scintillation counter, Packard Instrument Co., Downers Grove, Ill., U.S.A., see C. Matthijssen and J. W. Goldzieher, Analyt. Biochem., 10, 401 (1965).
All rabbits immunized with the immunogen produced antisera with high titers and specificity in 6 months' time. The titer was determined from the ability of antibody to bind a constant amount (50 pg) of the labeled steroid. As a primary step, the cross-reactivity [G. E. Abraham, J. Clin. Endocrinol. Metabol., 29, 866 (1969)] of estrone with anti-equilin serum obtained from each rabbit was evaluated. […] These latter two compounds represent about 2% each of the typical composition of estrogens present in conjugated estrogens and will not interfere, as shown, in the validation of the assay.

A short description of series [2]: Oxidation of equilin to equilenin during formic acid hydrolysis of the conjugate fraction (HPLC). Type of series: physicochemical. To be noted: 120 min.
Experimental: Plasma (0.2 ml) and distilled water (0.7 ml) were added to a 16×125 nm tube and mixed. [6,7-^3 H]-Estrone-3-sulfate (0.1 ml, 2,000 cpm) and [2,4-^3 H]-equilin (0.1 ml, 2,000 cpm) were then added to correct for recovery through the assay procedure, and the sample again mixed well and allowed to stand at room temperature for 30 min. Diethyl ether (2 ml) was added for extraction of the free compound. The extraction was repeated three times and the combined extracts washed with distilled water (1 ml) and the solvent removed by evaporation. The aqueous phase containing the conjugates was re-extracted with 2 ml of ethyl acetate-ethanol (4:1, v/v). The extraction was repeated two more times and the combined extracts were dried in a centrifuge tube (12 ml) under a stream of nitrogen. The conjugate fraction was hydrolyzed with formic acid. A solution of ethyl acetate (1 ml) containing formic acid (20% ) and ascorbic acid (1 mg) was added to the tube containing the conjugate fraction. The tube was tightly closed, vortexed, and sonified for 10 min before being placed in a 37° C. water bath for 2 hr. The hydrolyzed sample was taken to dryness, sodium phosphate buffer (1 ml) was added. The solution was vortexed and allowed to stand at 20° C. for 10 min. The hydrolyzed free compound was extracted with diethyl ether (2 ml) three times and taken to dryness. […]

Bounds are passed on as bounds.

On to `C[C@]12CCC(=O)C=C1CC[C@@H]1[C@@H]2CC[C@]2(C)C(=O)CC[C@@H]12` [4-Androstene-3,17-dione], for which the “Equilin Antibody (Percent Cross-Reactivity)” value in series [1] was less than 0.10%. Regarding `C[C@]12CC[C@@H]3c4ccc(O)cc4C=C[C@H]3[C@@H]1CCC2=O` [6-Dehydroestrone], the “Equilin Antibody (Percent Cross-Reactivity)” value in series [1] is given as less than 0.10%. On the same count and under the same terms, to `C[C@]12CCC3=C(CCc4cc(O)ccc43)[C@@H]1CCC2=O` [8-Dehydroestrone] belongs 0.94%; to `C[C@]12CCc3c(ccc4cc(O)ccc34)[C@@H]1CC[C@H]2O` [17α-Dihydroequilenin], less than 0.10%; to `C[C@]12CC[C@H]3C(=CCc4cc(O)ccc43)[C@@H]1CC[C@H]2O` [17α-Dihydroequilin], less than 0.10%. With `C[C@]12CC[C@@H]3c4ccc(O)cc4CC[C@H]3[C@@H]1CC[C@H]2O` [17α-Estradiol], the “Equilin Antibody (Percent Cross-Reactivity)” value in series [1] was less than 0.10%. Take `C[C@]12CCc3c(ccc4cc(O)ccc34)[C@@H]1CC[C@@H]2O` [17β-Dihydroequilenin]: the “Equilin Antibody (Percent Cross-Reactivity)” value in series [1] is less than 0.10%. In the case of `C[C@]12CC[C@H]3C(=CCc4cc(O)ccc43)[C@@H]1CC[C@@H]2O` [17β-Dihydroequilin], in series [1], the “cross-reaction with anti-equilin serum” value was 2.9% and the “Equilin Antibody (Percent Cross-Reactivity)” value stood at 2.86%. For the compound `C[C@]12CC[C@@H]3c4ccc(O)cc4CC[C@H]3[C@@H]1CC[C@@H]2O` [17β-Estradiol], the “Equilin Antibody (Percent Cross-Reactivity)” value in series [1] was less than 0.10%.

Regarding `C[C@]12CC[C@@H](O)C[C@@H]1CC[C@@H]1[C@@H]2CC[C@]2(C)C(=O)CC[C@@H]12` [Androsterone], the “Equilin Antibody (Percent Cross-Reactivity)” value in series [1] was less than 0.10%. Regarding `C[C@]12CCC(=O)C=C1CC[C@@H]1[C@@H]2[C@@H](O)C[C@@]2(C)[C@H]1CC[C@]2(O)C(=O)CO` [Cortisol], the “Equilin Antibody (Percent Cross-Reactivity)” value in series [1] was less than 0.10%. Take `C[C@]12CC[C@H](O)CC1=CC[C@@H]1[C@@H]2CC[C@]2(C)C(=O)CC[C@@H]12` [Dehydroepiandrosterone]: the “Equilin Antibody (Percent Cross-Reactivity)” value in series [1] is less than 0.10%. Consider `C[C@]12CCc3c(ccc4cc(O)ccc34)[C@@H]1CCC2=O` [Equilenin], for which, in series [1], the “cross-reaction with anti-equilin serum” value was determined as 3.5% and the “Equilin Antibody (Percent Cross-Reactivity)” value worked out at 3.45%. Consider `C[C@]12CC[C@H]3C(=CCc4cc(OS(=O)(=O)O)ccc43)[C@@H]1CCC2=O` [Equilin 3-Sulfate], for which the “Equilin Antibody (Percent Cross-Reactivity)” value in series [1] was found to be 1.36%. On to `C[C@]12CC[C@H]3C(=CCc4cc(O)ccc43)[C@@H]1CCC2=O` [Equilin, 3-hydroxy-1,3,5(10),7-estratetraen-17-one], for which the “Equilin Antibody (Percent Cross-Reactivity)” value in series [1] is recorded as 100.0%. Moreover, the “equilin oxidized to equilenin during hydrolysis” value in series [2] (formic acid hydrolysis with 0.1% (w/v) ascorbic acid added) is given as 2-3%; in series [2] (hydrolysis of conjugate fraction with formic acid, no antioxidant), 13-16%. `C[C@]12CC[C@@H]3c4ccc(O)cc4C[C@@H](O)[C@]3(O)[C@@H]1CCC2=O` [Equilin-7α,8α-glycol]: the “Equilin Antibody (Percent Cross-Reactivity)” value in series [1] is reported as less than 0.10%.

`C[C@]12CC[C@@H]3c4ccc(OS(=O)(=O)O)cc4CC[C@H]3[C@@H]1CCC2=O` [Estrone 3-sulfate]: the “Equilin Antibody (Percent Cross-Reactivity)” value in series [1] was less than 0.10%. Regarding `C[C@]12CC[C@@H]3c4ccc(O)cc4CC[C@H]3[C@@H]1CCC2=O` [Estrone], in series [1], the “cross-reaction with anti-equilin serum” value is reported as “negligible cross-reaction” and the “Equilin Antibody (Percent Cross-Reactivity)” value amounted to 0.78%.

On to `CC(=O)[C@H]1CC[C@H]2[C@@H]3CCC4=CC(=O)CC[C@]4(C)[C@H]3CC[C@]12C` [Progesterone], for which the “Equilin Antibody (Percent Cross-Reactivity)” value in series [1] was less than 0.10%.

Turning to `C[C@]12CC[C@H]3[C@@H](CCC4=CC(=O)CC[C@@]43C)[C@@H]1CC[C@@H]2O` [Testosterone], in series [1], the “Equilin Antibody (Percent Cross-Reactivity)” value was less than 0.10%.
